According to the NIST ThermoML archive (doi:10.1016/j.jct.2018.07.031):
Numbers after ± are expanded uncertainties.

Assays:
[1] = xn = mol fraction of the nth substance listed; conditions: x1 = 0.333; for surface tension liquid-gas: Drop volume; for viscosity / electrical conductivity / speed of sound / mass density: 100 kPa, Liquid; for viscosity: Capillary tube (Ostwald / Ubbelohde) method; for electrical conductivity: Frequency=0.002 MHz, Alternating current cell with electrodes; for speed of sound: Frequency=3 MHz, Single path-length method; for mass density: Vibrating tube method
[2] = refractive index (Na D-line) (dimensionless); xn = mol fraction of the nth substance listed; conditions: 100 kPa, Liquid, Standard Abbe refractometry, x1 = 0.333
[3] = molar heat capacity at constant pressure; xn = mol fraction of the nth substance listed; conditions: 100 kPa, Liquid, DSC, x1 = 0.333

## C[N+](C)(C)CCO.[Cl-] [choline chloride] + OCC(O)CO
[1]; 278.15 K
  surface tension liquid-gas: 68.01 ± 0.75 mN/m
  viscosity: 1511 ± 88 mPa·s
  electrical conductivity: 0.026 ± 0.0005 S/m
  speed of sound: 2049.6 ± 2.1 m/s
  mass density: 1207.05 ± 2.7 kg/m3
[1]; 280.65 K
  surface tension liquid-gas: 67.9 ± 0.75 mN/m
  viscosity: 1211 ± 66 mPa·s
  electrical conductivity: 0.032 ± 0.0006 S/m
  speed of sound: 2042.8 ± 2.1 m/s
  mass density: 1205.6 ± 2.7 kg/m3
[1]; 283.15 K
  surface tension liquid-gas: 67.77 ± 0.75 mN/m
  viscosity: 982.4 ± 50 mPa·s
  electrical conductivity: 0.0406 ± 0.0008 S/m
  speed of sound: 2036.2 ± 2.1 m/s
  mass density: 1204.2 ± 2.7 kg/m3
[1]; 285.65 K
  surface tension liquid-gas: 67.65 ± 0.74 mN/m
  viscosity: 801.5 ± 39 mPa·s
  electrical conductivity: 0.0491 ± 0.001 S/m
  speed of sound: 2029.9 ± 2.1 m/s
  mass density: 1202.8 ± 2.7 kg/m3
[1]; 288.15 K
  surface tension liquid-gas: 67.5 ± 0.74 mN/m
  viscosity: 658.4 ± 30 mPa·s
  electrical conductivity: 0.0587 ± 0.0012 S/m
  speed of sound: 2024 ± 2.1 m/s
  mass density: 1201.4 ± 2.7 kg/m3
[1]; 290.65 K
  surface tension liquid-gas: 67.34 ± 0.74 mN/m
  viscosity: 543.7 ± 23 mPa·s
  electrical conductivity: 0.0703 ± 0.0014 S/m
  speed of sound: 2018.2 ± 2.1 m/s
  mass density: 1200 ± 2.7 kg/m3
[1]; 293.15 K
  surface tension liquid-gas: 67.2 ± 0.74 mN/m
  viscosity: 452.6 ± 18 mPa·s
  electrical conductivity: 0.0839 ± 0.0017 S/m
  speed of sound: 2012.6 ± 2.1 m/s
  mass density: 1198.55 ± 2.7 kg/m3
[1]; 295.65 K
  surface tension liquid-gas: 67.1 ± 0.74 mN/m
  viscosity: 378.5 ± 15 mPa·s
  electrical conductivity: 0.0992 ± 0.002 S/m
  speed of sound: 2006.9 ± 2.1 m/s
  mass density: 1197.15 ± 2.7 kg/m3
[1]; 298.15 K
  surface tension liquid-gas: 66.95 ± 0.74 mN/m
  viscosity: 319.7 ± 12 mPa·s
  electrical conductivity: 0.117 ± 0.002 S/m
  speed of sound: 2001.3 ± 2.1 m/s
  mass density: 1195.75 ± 2.7 kg/m3
[1]; 300.65 K
  surface tension liquid-gas: 66.81 ± 0.74 mN/m
  viscosity: 271.4 ± 9.3 mPa·s
  electrical conductivity: 0.136 ± 0.003 S/m
  speed of sound: 1995.8 ± 2.1 m/s
  mass density: 1194.3 ± 2.7 kg/m3
[1]; 303.15 K
  surface tension liquid-gas: 66.7 ± 0.74 mN/m
  viscosity: 232.1 ± 7.6 mPa·s
  electrical conductivity: 0.158 ± 0.003 S/m
  speed of sound: 1990.2 ± 2.1 m/s
  mass density: 1192.9 ± 2.7 kg/m3
[1]; 305.65 K
  surface tension liquid-gas: 66.57 ± 0.73 mN/m
  viscosity: 199 ± 6.2 mPa·s
  electrical conductivity: 0.182 ± 0.004 S/m
  speed of sound: 1984.7 ± 2.1 m/s
  mass density: 1191.5 ± 2.7 kg/m3
[1]; 308.15 K
  surface tension liquid-gas: 66.43 ± 0.73 mN/m
  viscosity: 171.6 ± 5.1 mPa·s
  electrical conductivity: 0.21 ± 0.004 S/m
  speed of sound: 1979.2 ± 2.1 m/s
  mass density: 1190.15 ± 2.7 kg/m3
[1]; 310.65 K
  surface tension liquid-gas: 66.31 ± 0.73 mN/m
  viscosity: 149 ± 4.2 mPa·s
  electrical conductivity: 0.24 ± 0.005 S/m
  speed of sound: 1973.8 ± 2.1 m/s
  mass density: 1188.75 ± 2.7 kg/m3
[1]; 313.15 K
  surface tension liquid-gas: 66.18 ± 0.73 mN/m
  viscosity: 130 ± 3.5 mPa·s
  electrical conductivity: 0.276 ± 0.006 S/m
  speed of sound: 1968.3 ± 2.1 m/s
  mass density: 1187.4 ± 2.7 kg/m3
[1]; 315.65 K
  surface tension liquid-gas: 66.05 ± 0.73 mN/m
  viscosity: 113.8 ± 2.9 mPa·s
  electrical conductivity: 0.314 ± 0.006 S/m
  speed of sound: 1962.8 ± 2.1 m/s
  mass density: 1186 ± 2.7 kg/m3
[1]; 318.15 K
  surface tension liquid-gas: 65.93 ± 0.73 mN/m
  viscosity: 100 ± 2.5 mPa·s
  electrical conductivity: 0.352 ± 0.007 S/m
  speed of sound: 1957.4 ± 2.1 m/s
  mass density: 1184.65 ± 2.7 kg/m3
[1]; 320.65 K
  surface tension liquid-gas: 65.74 ± 0.73 mN/m
  viscosity: 88.43 ± 2.1 mPa·s
  electrical conductivity: 0.394 ± 0.008 S/m
  speed of sound: 1951.8 ± 2.1 m/s
  mass density: 1183.25 ± 2.7 kg/m3
[1]; 323.15 K
  surface tension liquid-gas: 65.62 ± 0.72 mN/m
  viscosity: 78.39 ± 1.8 mPa·s
  electrical conductivity: 0.439 ± 0.009 S/m
  speed of sound: 1946.3 ± 2.1 m/s
  mass density: 1181.9 ± 2.7 kg/m3
[1]; 325.65 K
  surface tension liquid-gas: 65.48 ± 0.72 mN/m
  viscosity: 69.46 ± 1.6 mPa·s
  electrical conductivity: 0.487 ± 0.01 S/m
  speed of sound: 1940.7 ± 2.1 m/s
  mass density: 1180.5 ± 2.7 kg/m3
[1]; 328.15 K
  surface tension liquid-gas: 65.38 ± 0.72 mN/m
  viscosity: 62.06 ± 1.4 mPa·s
  electrical conductivity: 0.544 ± 0.011 S/m
  speed of sound: 1935.2 ± 2.1 m/s
  mass density: 1179.1 ± 2.7 kg/m3
[1]; 330.65 K
  surface tension liquid-gas: 65.23 ± 0.72 mN/m
  viscosity: 55.63 ± 1.2 mPa·s
  electrical conductivity: 0.603 ± 0.012 S/m
  speed of sound: 1929.6 ± 2.1 m/s
  mass density: 1177.7 ± 2.6 kg/m3
[1]; 333.15 K
  surface tension liquid-gas: 65.1 ± 0.72 mN/m
  viscosity: 50.05 ± 1.1 mPa·s
  electrical conductivity: 0.662 ± 0.013 S/m
  speed of sound: 1924.1 ± 2.1 m/s
  mass density: 1176.35 ± 2.6 kg/m3
[1]; 335.65 K
  surface tension liquid-gas: 64.97 ± 0.72 mN/m
  viscosity: 45.19 ± 1 mPa·s
  electrical conductivity: 0.729 ± 0.015 S/m
  speed of sound: 1918.5 ± 2.1 m/s
  mass density: 1174.95 ± 2.6 kg/m3
[1]; 338.15 K
  surface tension liquid-gas: 64.84 ± 0.72 mN/m
  viscosity: 40.94 ± 0.93 mPa·s
  electrical conductivity: 0.801 ± 0.016 S/m
  speed of sound: 1912.9 ± 2.1 m/s
  mass density: 1173.55 ± 2.6 kg/m3
[2]; 283.15 K
  refractive index: 1.48809 ± 0.00051
[2]; 285.65 K
  refractive index: 1.4875 ± 0.00051
[2]; 288.15 K
  refractive index: 1.48698 ± 0.00051
[2]; 290.65 K
  refractive index: 1.48632 ± 0.00051
[2]; 293.15 K
  refractive index: 1.48574 ± 0.00051
[2]; 295.65 K
  refractive index: 1.48514 ± 0.00051
[2]; 298.15 K
  refractive index: 1.48455 ± 0.00051
[2]; 300.65 K
  refractive index: 1.48396 ± 0.00051
[2]; 303.15 K
  refractive index: 1.48337 ± 0.00051
[2]; 305.65 K
  refractive index: 1.48278 ± 0.00051
[2]; 308.15 K
  refractive index: 1.48218 ± 0.00051
[2]; 310.65 K
  refractive index: 1.48159 ± 0.00051
[2]; 313.15 K
  refractive index: 1.48098 ± 0.00051
[2]; 315.65 K
  refractive index: 1.4804 ± 0.00051
[2]; 318.15 K
  refractive index: 1.4798 ± 0.00051
[2]; 320.65 K
  refractive index: 1.47921 ± 0.00051
[2]; 323.15 K
  refractive index: 1.4786 ± 0.00051
[2]; 325.65 K
  refractive index: 1.47801 ± 0.00051
[2]; 328.15 K
  refractive index: 1.47741 ± 0.00051
[2]; 330.65 K
  refractive index: 1.47681 ± 0.00051
[2]; 333.15 K
  refractive index: 1.47622 ± 0.00051
[2]; 335.65 K
  refractive index: 1.47564 ± 0.00051
[2]; 338.15 K
  refractive index: 1.47504 ± 0.00051
[3]; 278.15 K
  molar heat capacity at constant pressure: 211.5 ± 8.2 J/K/mol
[3]; 280.65 K
  molar heat capacity at constant pressure: 212.5 ± 8.2 J/K/mol
[3]; 283.15 K
  molar heat capacity at constant pressure: 213.5 ± 8.3 J/K/mol
[3]; 285.65 K
  molar heat capacity at constant pressure: 214.5 ± 8.3 J/K/mol
[3]; 288.15 K
  molar heat capacity at constant pressure: 215 ± 8.3 J/K/mol
[3]; 290.65 K
  molar heat capacity at constant pressure: 216 ± 8.4 J/K/mol
[3]; 293.15 K
  molar heat capacity at constant pressure: 217 ± 8.4 J/K/mol
[3]; 295.65 K
  molar heat capacity at constant pressure: 217.5 ± 8.4 J/K/mol
[3]; 298.15 K
  molar heat capacity at constant pressure: 218.5 ± 8.5 J/K/mol
[3]; 300.65 K
  molar heat capacity at constant pressure: 219 ± 8.5 J/K/mol
[3]; 303.15 K
  molar heat capacity at constant pressure: 220 ± 8.5 J/K/mol
[3]; 305.65 K
  molar heat capacity at constant pressure: 221 ± 8.6 J/K/mol
[3]; 308.15 K
  molar heat capacity at constant pressure: 221.5 ± 8.6 J/K/mol
[3]; 310.65 K
  molar heat capacity at constant pressure: 222.5 ± 8.6 J/K/mol
[3]; 313.15 K
  molar heat capacity at constant pressure: 223.5 ± 8.7 J/K/mol
[3]; 315.65 K
  molar heat capacity at constant pressure: 224 ± 8.7 J/K/mol
[3]; 318.15 K
  molar heat capacity at constant pressure: 225 ± 8.7 J/K/mol
[3]; 320.65 K
  molar heat capacity at constant pressure: 226 ± 8.8 J/K/mol
[3]; 323.15 K
  molar heat capacity at constant pressure: 227 ± 8.8 J/K/mol
[3]; 325.65 K
  molar heat capacity at constant pressure: 228 ± 8.8 J/K/mol
[3]; 328.15 K
  molar heat capacity at constant pressure: 228.5 ± 8.8 J/K/mol
[3]; 330.65 K
  molar heat capacity at constant pressure: 229 ± 8.9 J/K/mol
[3]; 333.15 K
  molar heat capacity at constant pressure: 230 ± 8.9 J/K/mol
[3]; 335.65 K
  molar heat capacity at constant pressure: 231 ± 8.9 J/K/mol
[3]; 338.15 K
  molar heat capacity at constant pressure: 232 ± 9 J/K/mol
